Source: the supplement of paper PMC10307832

Compound: CC(C)C[C@@H](C(=O)N[C@H](C(=O)OC1CCCC1)c1ccccc1)[C@H](O)C(=O)NO [Tosedostat] + CS(=O)(=O)CCNCc1ccc(-c2ccc3ncnc(Nc4ccc(OCc5cccc(F)c5)c(Cl)c4)c3c2)o1 [Lapatinib] (partner 2 µM)
Assay: relative viability (nuclei count vs DMSO), 5 days (fraction); higher = more cells survive
Details: first compound 0.02 µM
Summary of the method: (§1)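 One day after seeding in 1536-well plates, lung cancer cell lines were dosed by pin tool. Dosing was either single-drug or a fixed anchor-drug dose plus five library-drug doses (not always all listed) in √10 steps. After 5 days, nuclei were stained in one fix-and-stain step and counted on 4× images, and relative viability is the nuclei count of treated wells over that of vehicle wells, given as the median of duplicate plates.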

**Q.** Which relative viability does the source give for NCI-H2228 here?
**A.** The relative viability was 1.11.

**Q.** For HCC-15, which relative viability is on record?
**A.** The relative viability was 0.949.

**Q.** How did the relative viability turn out when EKVX was run?
**A.** Its relative viability is 0.19.

**Q.** With LC-2-ad as the cell line, how does the relative viability read?
**A.** The relative viability was 1.02.

**Q.** For NCI-H1666, which relative viability is on record?
**A.** Its relative viability is 0.841.

**Q.** Which relative viability does the source give for NCI-H1944 here?
**A.** Its relative viability is 0.94.

**Q.** With NCI-H2085 as the cell line, how does the relative viability read?
**A.** The relative viability was 0.568.

**Q.** Which relative viability does the source give for ABC-1 here?
**A.** Its relative viability is 1.34.

**Q.** With NCI-H358 as the cell line, how does the relative viability read?
**A.** The relative viability was 0.514.

**Q.** With PC-3 [JPC-3] as the cell line, how does the relative viability read?
**A.** Its relative viability is 0.445.

**Q.** How did the relative viability turn out when LOU-NH91 was run?
**A.** Its relative viability is 0.8.

Same assay, conditions: first compound 0.06325 µM

**Q.** With NCI-H2228 as the cell line, how does the relative viability read?
**A.** Its relative viability is 0.991.

**Q.** How did the relative viability turn out when HCC-15 was run?
**A.** Its relative viability is 0.882.

**Q.** Which relative viability does the source give for EKVX here?
**A.** The relative viability was 0.233.

**Q.** For LC-2-ad, which relative viability is on record?
**A.** Its relative viability is 0.981.

**Q.** How did the relative viability turn out when NCI-H1666 was run?
**A.** Its relative viability is 0.853.

**Q.** Which relative viability does the source give for NCI-H1944 here?
**A.** Its relative viability is 0.836.

**Q.** NCI-H2085 was tested. Which relative viability did it give?
**A.** The relative viability was 0.825.

**Q.** With ABC-1 as the cell line, how does the relative viability read?
**A.** The relative viability was 1.12.

**Q.** For NCI-H358, which relative viability is on record?
**A.** Its relative viability is 0.454.

**Q.** How did the relative viability turn out when PC-3 [JPC-3] was run?
**A.** The relative viability was 0.453.

**Q.** For LOU-NH91, which relative viability is on record?
**A.** The relative viability was 0.88.

Same assay, conditions: first compound 0.2 µM

**Q.** NCI-H2228 was tested. Which relative viability did it give?
**A.** Its relative viability is 0.822.

**Q.** Which relative viability does the source give for HCC-15 here?
**A.** Its relative viability is 0.748.

**Q.** EKVX was tested. Which relative viability did it give?
**A.** Its relative viability is 0.418.

**Q.** LC-2-ad was tested. Which relative viability did it give?
**A.** The relative viability was 0.993.

**Q.** How did the relative viability turn out when NCI-H1666 was run?
**A.** Its relative viability is 0.669.

**Q.** How did the relative viability turn out when NCI-H1944 was run?
**A.** The relative viability was 0.854.

**Q.** With NCI-H2085 as the cell line, how does the relative viability read?
**A.** Its relative viability is 0.827.

**Q.** ABC-1 was tested. Which relative viability did it give?
**A.** Its relative viability is 1.2.

**Q.** With NCI-H358 as the cell line, how does the relative viability read?
**A.** Its relative viability is 0.374.

**Q.** Which relative viability does the source give for PC-3 [JPC-3] here?
**A.** Its relative viability is 0.432.

**Q.** For LOU-NH91, which relative viability is on record?
**A.** Its relative viability is 0.875.

Same assay, conditions: first compound 0.6325 µM

**Q.** NCI-H2228 was tested. Which relative viability did it give?
**A.** Its relative viability is 0.784.

**Q.** HCC-15 was tested. Which relative viability did it give?
**A.** Its relative viability is 0.746.

**Q.** Which relative viability does the source give for EKVX here?
**A.** The relative viability was 0.218.

**Q.** Which relative viability does the source give for LC-2-ad here?
**A.** The relative viability was 0.909.

**Q.** NCI-H1666 was tested. Which relative viability did it give?
**A.** Its relative viability is 0.735.

**Q.** For NCI-H1944, which relative viability is on record?
**A.** Its relative viability is 0.81.

**Q.** For NCI-H2085, which relative viability is on record?
**A.** Its relative viability is 0.743.

**Q.** ABC-1 was tested. Which relative viability did it give?
**A.** The relative viability was 1.19.

**Q.** With NCI-H358 as the cell line, how does the relative viability read?
**A.** The relative viability was 0.407.

**Q.** With PC-3 [JPC-3] as the cell line, how does the relative viability read?
**A.** The relative viability was 0.452.

**Q.** With LOU-NH91 as the cell line, how does the relative viability read?
**A.** Its relative viability is 0.868.

Same assay, conditions: first compound 2 µM

**Q.** NCI-H2228 was tested. Which relative viability did it give?
**A.** Its relative viability is 0.533.

**Q.** How did the relative viability turn out when HCC-15 was run?
**A.** Its relative viability is 0.708.

**Q.** Which relative viability does the source give for EKVX here?
**A.** The relative viability was 0.227.

**Q.** Which relative viability does the source give for LC-2-ad here?
**A.** Its relative viability is 1.04.

**Q.** With NCI-H1666 as the cell line, how does the relative viability read?
**A.** Its relative viability is 0.618.

**Q.** Which relative viability does the source give for NCI-H1944 here?
**A.** The relative viability was 0.904.

**Q.** NCI-H2085 was tested. Which relative viability did it give?
**A.** The relative viability was 0.836.

**Q.** With ABC-1 as the cell line, how does the relative viability read?
**A.** The relative viability was 1.23.

**Q.** How did the relative viability turn out when NCI-H358 was run?
**A.** Its relative viability is 0.456.

**Q.** For PC-3 [JPC-3], which relative viability is on record?
**A.** Its relative viability is 0.428.

**Q.** With LOU-NH91 as the cell line, how does the relative viability read?
**A.** The relative viability was 0.778.

Compound: CC(C)C[C@@H](C(=O)N[C@H](C(=O)OC1CCCC1)c1ccccc1)[C@H](O)C(=O)NO [Tosedostat] + C[C@@H](Oc1cc(-c2cnn(C3CCNCC3)c2)cnc1N)c1c(Cl)ccc(F)c1Cl [Crizotinib] (partner 1 µM)
Assay: as above
Details: first compound 0.02 µM
Summary of the method: as §1

**Q.** For NCI-H2228, which relative viability is on record?
**A.** The relative viability was 0.599.

**Q.** HCC-15 was tested. Which relative viability did it give?
**A.** Its relative viability is 0.939.

**Q.** EKVX was tested. Which relative viability did it give?
**A.** Its relative viability is 0.763.

**Q.** With LC-2-ad as the cell line, how does the relative viability read?
**A.** Its relative viability is 0.47.

**Q.** How did the relative viability turn out when NCI-H1666 was run?
**A.** The relative viability was 0.972.

**Q.** NCI-H1944 was tested. Which relative viability did it give?
**A.** The relative viability was 1.11.

**Q.** Which relative viability does the source give for NCI-H2085 here?
**A.** Its relative viability is 0.842.

**Q.** ABC-1 was tested. Which relative viability did it give?
**A.** Its relative viability is 1.15.

**Q.** With NCI-H358 as the cell line, how does the relative viability read?
**A.** The relative viability was 0.725.

**Q.** How did the relative viability turn out when PC-3 [JPC-3] was run?
**A.** Its relative viability is 1.

**Q.** LOU-NH91 was tested. Which relative viability did it give?
**A.** The relative viability was 0.86.

Same assay, conditions: first compound 0.06325 µM

**Q.** For NCI-H2228, which relative viability is on record?
**A.** The relative viability was 0.438.

**Q.** HCC-15 was tested. Which relative viability did it give?
**A.** The relative viability was 0.836.

**Q.** EKVX was tested. Which relative viability did it give?
**A.** Its relative viability is 0.842.

**Q.** With LC-2-ad as the cell line, how does the relative viability read?
**A.** The relative viability was 0.454.

**Q.** For NCI-H1666, which relative viability is on record?
**A.** The relative viability was 1.01.

**Q.** Which relative viability does the source give for NCI-H1944 here?
**A.** The relative viability was 1.01.

**Q.** Which relative viability does the source give for NCI-H2085 here?
**A.** The relative viability was 0.98.

**Q.** How did the relative viability turn out when ABC-1 was run?
**A.** The relative viability was 0.868.

**Q.** For NCI-H358, which relative viability is on record?
**A.** The relative viability was 0.458.

**Q.** Which relative viability does the source give for PC-3 [JPC-3] here?
**A.** The relative viability was 0.885.

**Q.** Which relative viability does the source give for LOU-NH91 here?
**A.** Its relative viability is 0.752.

Same assay, conditions: first compound 0.2 µM

**Q.** How did the relative viability turn out when NCI-H2228 was run?
**A.** Its relative viability is 0.48.

**Q.** For HCC-15, which relative viability is on record?
**A.** Its relative viability is 0.834.

**Q.** For EKVX, which relative viability is on record?
**A.** The relative viability was 0.921.

**Q.** For LC-2-ad, which relative viability is on record?
**A.** The relative viability was 0.493.

**Q.** With NCI-H1666 as the cell line, how does the relative viability read?
**A.** Its relative viability is 1.01.

**Q.** NCI-H1944 was tested. Which relative viability did it give?
**A.** The relative viability was 1.04.

**Q.** With NCI-H2085 as the cell line, how does the relative viability read?
**A.** The relative viability was 0.91.

**Q.** Which relative viability does the source give for ABC-1 here?
**A.** Its relative viability is 1.02.

**Q.** For NCI-H358, which relative viability is on record?
**A.** The relative viability was 0.355.

**Q.** For PC-3 [JPC-3], which relative viability is on record?
**A.** The relative viability was 0.998.

**Q.** For LOU-NH91, which relative viability is on record?
**A.** Its relative viability is 0.767.

Same assay, conditions: first compound 0.6325 µM

**Q.** For NCI-H2228, which relative viability is on record?
**A.** The relative viability was 0.418.

**Q.** With HCC-15 as the cell line, how does the relative viability read?
**A.** The relative viability was 0.777.

**Q.** For EKVX, which relative viability is on record?
**A.** The relative viability was 0.807.

**Q.** LC-2-ad was tested. Which relative viability did it give?
**A.** Its relative viability is 0.378.

**Q.** How did the relative viability turn out when NCI-H1666 was run?
**A.** Its relative viability is 0.937.

**Q.** With NCI-H1944 as the cell line, how does the relative viability read?
**A.** Its relative viability is 1.08.

**Q.** With NCI-H2085 as the cell line, how does the relative viability read?
**A.** Its relative viability is 0.896.

**Q.** Which relative viability does the source give for ABC-1 here?
**A.** Its relative viability is 0.83.

**Q.** NCI-H358 was tested. Which relative viability did it give?
**A.** Its relative viability is 0.198.

**Q.** How did the relative viability turn out when PC-3 [JPC-3] was run?
**A.** The relative viability was 0.942.

**Q.** LOU-NH91 was tested. Which relative viability did it give?
**A.** The relative viability was 0.695.

Same assay, conditions: first compound 2 µM

**Q.** How did the relative viability turn out when NCI-H2228 was run?
**A.** Its relative viability is 0.445.

**Q.** How did the relative viability turn out when HCC-15 was run?
**A.** The relative viability was 0.635.

**Q.** For EKVX, which relative viability is on record?
**A.** Its relative viability is 0.789.

**Q.** Which relative viability does the source give for LC-2-ad here?
**A.** Its relative viability is 0.348.

**Q.** Which relative viability does the source give for NCI-H1666 here?
**A.** The relative viability was 1.11.
